These results are taken from patent publication US10980900B2, “Imaging of meningiomas using phenylbenzothiazole, stilbene, or biphenylalkyne derivatives” (MAYO FOUNDATION FOR MEDICAL EDUCATION AND RESEARCH, priority 2010, dated 2021).

The subject of assay [1] is meningiomas. Put plainly: PiB PET/CT imaging of meningiomas in patients. It counts as in vivo, human. The source says:
(§1) An Alzheimer's imaging database of two hundred forty-one patients was reviewed. […] All patients had been imaged by at least one MRI, as well as by FDG-PET/CT and PET/CT using the compound of formula (V). MRI reports of all patients were reviewed for possible meningiomas and other tumors. […] The diagnostic confidence of the radiologists interpreting the studies varied slightly, depending on factors such as tumor location and previous imaging. […] Tumors smaller than 7 millimeters are generally considered too small to be evaluated by PET or PET/CT. This is an excepted limitation of PET or PET/CT as a modality. […] None of the meningiomas in the series would be classified as atypical or aggressive based on MRI or CT imaging. One presumed extracranial schwannoma was seen, showing mild uptake on FDG-PET/CT, but no uptake on PET/CT using the compound of formula (V).
(§2) The radiologic interpretations of MRI, CT and FDG PET/CT scans from a population of 834 people who participated in the population-based Mayo Clinic Study of Aging (MCSA) from March 2006 through September 2011 were reviewed for the presence of tumors or other brain lesions. (See, Kantarci K, Lowe V, Przybelski S A, et al., “Magnetic resonance spectroscopy, {beta}-amyloid load, and cognition in a population-based sample of cognitively normal older adults”, Neurology 2011; 77:951-8; and Roberts R O, Geda Y E, Knopman D S, et al., “The Mayo Clinic Study of Aging: design and sampling, participation, baseline measures and sample characteristics”, Neuroepidemiology 2008; 30:58-69.) Participants were randomly selected for recruitment in the MCSA from a population of older adult residents of Olmsted County, Minn., USA. Those with neurological, psychological or systemic illnesses were not excluded. Individuals with dementia, or those unable to be imaged for medical reasons were excluded. All patients were imaged with C11-PiB PET/CT, F18-FDG PET/CT and non-contrast MRI at least once as part of the study. Any additional patient imaging and clinical history was then reviewed.
Tumors found in any of the subjects were then categorized as possible meningiomas or non-meningiomas based on the reading of the reporting neuroradiologist. Possible meningiomas were further reviewed as a group. A more strict set of criteria were applied to select a subset of the possible meningiomas that were designated “high-likelihood meningiomas” for further analysis and were defined by (1) tumors that were confirmed to be enhancing on diagnostic MRI (obtained separately for clinical purposes) and (2) tumors that had greater than two years of follow-up imaging confirming no growth or slow growth (1-2 mm per year). When the lead diagnosis of the identified tumor was metastasis, the diagnosis was confirmed by biopsy or autopsy. All tumors smaller than 5 mm thick were excluded, given they fall below the generally accepted lower limits of PET/CT resolution.
PET imaging was performed as part of the Mayo Clinic Study of Aging as previously described. (See Kantarci K, Lowe V, Przybelski S A, et al., “Magnetic resonance spectroscopy, {beta}-amyloid load, and cognition in a population-based sample of cognitively normal older adults”, Neurology 2011; 77:951-8.) PiB PET/CT, then FDG PET/CT were performed on the same day. PET/CT imaging was performed on a 690XT or DRX PET/CT tomograph (GE Healthcare). The PET sinograms were reconstructed using a fully-3D OSEM algorithm into a 30 cm field of view; the pixel size was 1.2 mm and the slice thickness was 3.27 mm (DRX) or 1.96 mm (690XT). CT imaging was obtained immediately prior to PET acquisition and used for attenuation correction. Cerebral PiB retention, a marker of amyloid deposition, was measured as previously described. (See Kantarci K, Lowe V, Przybelski S A, et al. “Magnetic resonance spectroscopy, {beta}-amyloid load, and cognition in a population-based sample of cognitively normal older adults”, Neurology 2011; 77:951-8.) […]

The subject of assay [2] is non-meningioma tumors and lesions. Kind of assay: PiB PET/CT imaging of non-meningioma tumors and lesions in patients. The assay is classed as in vivo, human.
Excerpt: as §1, §2
Tumors found in any of the subjects were then categorized as possible meningiomas or non-meningiomas based on the reading of the reporting neuroradiologist. Possible meningiomas were further reviewed as a group. […]
PET imaging was performed as part of the Mayo Clinic Study of Aging as previously described. […] Cerebral PiB retention, a marker of amyloid deposition, was measured as previously described. […]

Assay [3] is described as follows: PiB PET/CT activity in normal tissues near the tumors. The assay is classed as in vivo, human.
Excerpt: as §2
PET imaging was performed as part of the Mayo Clinic Study of Aging as previously described. (See Kantarci K, Lowe V, Przybelski S A, et al., “Magnetic resonance spectroscopy, {beta}-amyloid load, and cognition in a population-based sample of cognitively normal older adults”, Neurology 2011; 77:951-8.) PiB PET/CT, then FDG PET/CT were performed on the same day. PET/CT imaging was performed on a 690XT or DRX PET/CT tomograph (GE Healthcare). The PET sinograms were reconstructed using a fully-3D OSEM algorithm into a 30 cm field of view; the pixel size was 1.2 mm and the slice thickness was 3.27 mm (DRX) or 1.96 mm (690XT). CT imaging was obtained immediately prior to PET acquisition and used for attenuation correction. Cerebral PiB retention, a marker of amyloid deposition, was measured as previously described. […]

Assay [4] concerns meningioma tissue sections. Kind of assay: Fluorescent PiB / 6-CN-PiB staining of meningioma tissue sections. It counts as binding, human. The source says:
(§3) The Department of Pathology, Mayo Clinic Rochester Tumor Tissue Registry, contains tumor samples procured by autopsy and surgery. Meningiomas, brain metastases and other tumors were identified by searching CoPath, a Mayo Clinic electronic pathology database of tumors collected since 1982. Tumor type was confirmed by viewing H&E stained slides under a light microscope.
Fresh cut 5 μm thick sections were used. Each staining run included normal brain and Alzheimer diseased brain as controls. Fluorescent tissue staining and microscopy was performed similar to methods previously described at Ikonomovic M D, Klunk W E, Abrahamson E E, et al., “Post-mortem correlates of in vivo PiB-PET amyloid imaging in a typical case of Alzheimer's disease”, Brain: A Journal Of Neurology 2008; 131:1630-45. Meningioma and other brain tumor sections were stained with 100 nM CN-PiB, 100 nM of unlabeled PiB or with saline alone as a negative control. The staining protocol was as follows: deparaffinization and rehydration, 0.25% KMnO4 incubation, water wash, 1% K2S2O5/1% Oxalic Acid incubation, water wash, PBS wash, 6-CN-PiB/PiB/saline incubation, PBS wash, NaCl, K2HPO4, and KH2PO4 incubation, water wash, mount coverslip, and storage at 4° C. in the dark until imaged. Slides were imaged within five days of staining.
Tissue stain images were obtained on a Zeiss 510 confocal microscope with excitation at 405 nm, a 420-480 bandpass filter, and the laser set at 15% power. Images were obtained with a C-Apochromat 40×/1.2 W lens.

Assay [5] concerns meningiomas. Kind of assay: FDG PET/CT imaging of meningiomas in patients. The assay is classed as in vivo, human.
Excerpt: (§4) An Alzheimer's imaging database of two hundred forty-one patients was reviewed. […] MRI reports of all patients were reviewed for possible meningiomas and other tumors. […] Tumors smaller than 7 millimeters are generally considered too small to be evaluated by PET or PET/CT.
as §2
(§5) PET imaging was performed as part of the Mayo Clinic Study of Aging as previously described. (See Kantarci K, Lowe V, Przybelski S A, et al., “Magnetic resonance spectroscopy, {beta}-amyloid load, and cognition in a population-based sample of cognitively normal older adults”, Neurology 2011; 77:951-8.) PiB PET/CT, then FDG PET/CT were performed on the same day. PET/CT imaging was performed on a 690XT or DRX PET/CT tomograph (GE Healthcare). […] Cerebral PiB retention, a marker of amyloid deposition, was measured as previously described. […]

The subject of another assay is non-meningioma tumors. Kind of assay: FDG PET/CT imaging of non-meningioma tumors in patients. It counts as in vivo, human.
Excerpt: as §4, §2, §5

Assay [6] deals with other intracranial tumors (schwannoma, metastasis) tissue sections. Put plainly: Fluorescent 6-CN-PiB staining of other intracranial tumor tissue sections. The assay is classed as binding, human. The note with it: some other tumors, different staining pattern.
Excerpt: as §3
Fresh cut 5 μm thick sections were used. Each staining run included normal brain and Alzheimer diseased brain as controls. Fluorescent tissue staining and microscopy was performed similar to methods previously described at Ikonomovic M D, Klunk W E, Abrahamson E E, et al., “Post-mortem correlates of in vivo PiB-PET amyloid imaging in a typical case of Alzheimer's disease”, Brain: A Journal Of Neurology 2008; 131:1630-45. Meningioma and other brain tumor sections were stained with 100 nM CN-PiB, 100 nM of unlabeled PiB or with saline alone as a negative control. The staining protocol was as follows: deparaffinization and rehydration, 0.25% KMnO4 incubation, water wash, 1% K2S2O5/1% Oxalic Acid incubation, water wash, PBS wash, 6-CN-PiB/PiB/saline incubation, PBS wash, NaCl, K2HPO4, and KH2PO4 incubation, water wash, mount coverslip, and storage at 4° C. in the dark until imaged. Slides were imaged within five days of staining. […]

Setting [7] is: meningiomas 5 mm and thicker vs all other tumors in the 834 patient population.

“Also recorded” adds a separate entry of the source.

On to `[11CH3]Nc1ccc(-c2nc3ccc(O)cc3s2)cc1` [Formula (V), [N-Methyl-^11C]2-(4′-methylaminophenyl)-6-hydroxybenzothiazole], for which the “SUVmax (by body weight), range” value in the assay with meningiomas [1] (16 high-likelihood meningiomas, PiB PET/CT) was 1.4-3.6. In the assay on meningiomas [1] (Example 3: one patient imaged two times, many months in between), the “result on repeat PET/CT imaging” value is on record as “same positive results”. Also, the “activity at the meningioma on PET and CT images” value in the assay with meningiomas [1] (Patient #1, mass along right tentorium cerebelli (FIG. 1)) was “intense activity”; with meningiomas [1] (Patient #4, mass along tuberculum sellae and planum sphenoidale (FIG. 2)) it was “intense activity”. For the same molecule, the “result on PiB PET/CT imaging” value with meningiomas [1] (all 16 high-likelihood meningiomas) is given as “clearly diagnostically positive”. In addition, in the assay with meningiomas [1] (all 16 meningiomas identified by strict imaging criteria), the “PiB activity relative to normal adjacent tissues” value is “greater than normal adjacent tissues”. Further, the “sensitivity of PiB PET/CT for meningiomas” value in the assay on meningiomas [1] (setting [7]) is 100%. Moreover, the “specificity of PiB PET/CT for meningiomas” value with meningiomas [1] (setting [7]) is reported as 100%. For the same molecule, the “SUVmax of meningioma on repeat imaging” value in the assay with meningiomas [1] (two patients imaged with PiB PET/CT more than once) is listed as “stable or increasing”. Also, the “PiB activity relative to normal adjacent tissue” value in assay [2] (all other intracranial tumors imaged (metastases, pituitary macroadenomas, schwannomas, ependymoma)) is reported as “equal or less than normal adjacent tissue”. The “result on PiB PET/CT” value in assay [2] (both intracranial metastases (FIG. 4), pathologically confirmed) is on record as “negative”. Moreover, the “result on research PiB PET/CT” value in assay [2] (melanoma metastasis case) is “negative”. In assay [2] (non-tumorous lesions (strokes, arachnoid cysts, multiple sclerosis lesions)), the PiB activity entry is reported as “only trace”. Also, the “average PiB activity, SUVmax” value in assay [3] (nearby normal bone) is given as 0.6; in assay [3] (nearby normal grey matter), 1.1. The “average background PiB activity, SUVmax” value in assay [3] (surrounding cerebrospinal fluid) is listed as 0.2. Further, the “staining of tissue sections” value in assay [4] (tissue sections from meningiomas, 100 nM unlabeled PiB) is reported as “brightly positive”.

Regarding Fluorodeoxyglucose [FDG], the FDG activity entry with meningiomas [5] (2.6 cm thick meningioma of right tentorium (FIG. 3)) is reported as “only trace”; in the assay with meningiomas [5] (seven of the 16 high-likelihood meningiomas) it was “moderate to high”. For the same molecule, the “FDG PET activity” value in the assay with meningiomas [5] (meningioma in FIG. 4 panels G-I) is reported as “increased”; with non-meningioma tumors (melanoma and small cell lung cancer metastases (FIG. 4)) it was “increased”. The “result on FDG PET/CT” value is given as “positive” in the assay with non-meningioma tumors (melanoma metastasis case, initial imaging) and “positive” with non-meningioma tumors (pituitary macroadenoma (FIG. 5 Panel B)).

Consider `CNc1ccc(-c2nc3ccc(C#N)cc3s2)cc1` [Formula 6-CN-PiB], for which the fluorescent staining result in assay [4] (WHO grade I meningothelial meningioma (FIG. 6 Panel D), 100 nM) is listed as “positively; also recorded: intense fluorescence”. Also, in assay [4] (all meningiomas (n=7) vs other intracranial tumors (n=6)), the “staining brightness vs other intracranial tumors” value is “qualitatively brighter”. In addition, the 6-CN-PiB binding entry in assay [6] is listed as “Moderate”.
